Measurements reported in patent publication US10815226B2, “Heteroaryl compounds as inhibitors of necrosis, composition and application thereof” (ACCRO BIOSCIENCE INC., priority 2016, dated 2020).

System: HT29 cells
Assay: HT29 cell necroptosis assay (TNF-α/Smac mimetic/z-VAD induced necrosis, viability)
Format: cell-based, human
Conditions: 10 μM test compound pretreated one hour, TNF-α (40 ng/mL), Smacmimetic (100 nM), z-VAD (20 μM) for 48 hours
Experimental: Biological in Vitro HT29 Cell Assay.
The efficacies of RIP1 inhibitors were tested in vitro using human colon cancer TH29 cells in a necroptosis assay. For the assay, Cells were added to 96-well plates and then 10 μM of the test compound was pretreated for one hour. Then the cells were treated with TNF-α (40 ng/mL), Smacmimetic (100 nM) and z-VAD (20 μM) for 48 hours, and the viability was quantified. DMSO pretreatment group was negative control, Nec-1 pretreatment group was positive control.

**Q.** How did the “HT29 Inhibition (10 μM)” value turn out when `CC(=O)Nc1nc2ccc(-c3cnc(C)c(NC(=O)OC4CCC5(CC4)OCCO5)c3)cc2s1` [Compound A77] was run?
**A.** The value was 60%.

**Q.** With `CC(=O)Nc1nc2ccc(-c3cc(NC(=O)OC4CCCCC4)ncn3)cc2s1` [Compound A76] as the compound, how does the “HT29 Inhibition (10 μM)” value read?
**A.** Its value is 5%.

**Q.** `CC(=O)Nc1nc2ccc(-c3cccc(NC(=O)Cc4ccccc4Cl)n3)cc2s1` [Compound A35] was tested. Which “HT29 Inhibition (10 μM)” value did it give?
**A.** Its value is 1%.

**Q.** `CC(=O)Nc1nc2ccc(-c3cnc(C)c(NC(=O)OC4COC4)c3)cc2s1` [Compound A93] was tested. Which “HT29 Inhibition (10 μM)” value did it give?
**A.** Its value is 8%.

**Q.** How did the “HT29 Inhibition (10 μM)” value turn out when `CC(=O)Nc1nc2ccc(-c3cncc(NC(=O)Cc4cccc(F)c4)c3)cc2s1` [Compound A17] was run?
**A.** Its value is 45%.

**Q.** Which “HT29 Inhibition (10 μM)” value does the source give for `O=C(Nc1cc(-c2ccc3ncsc3c2)cnc1Cl)c1cccc(F)c1` [Compound A11] here?
**A.** The value was 8%.

**Q.** `CNc1nc2ccc(-c3cnc(C)c(NC(=O)OC4CCCCC4)c3)cc2s1` [Compound A103] was tested. Which “HT29 Inhibition (10 μM)” value did it give?
**A.** Its value is 20%.

**Q.** `Cc1ncc(-c2ccc3nc(NC(=O)CCCCCNC(=O)CCCCCNC(=O)CCCC[C@@H]4SC[C@@H]5NC(=O)N[C@@H]54)sc3c2)cc1NC(=O)Cc1ccccc1` [Compound A32] was tested. Which “HT29 Inhibition (10 μM)” value did it give?
**A.** The value was 21%.

**Q.** How did the “HT29 Inhibition (10 μM)” value turn out when `CC(=O)Nc1nc2ccc(-c3cnc(C)c(NC(=O)CN4CCC(O)CC4)c3)cc2s1` [Compound A39] was run?
**A.** Its value is 9%.

**Q.** `Cc1ncc(-c2ccc3nc(N(C)C(=O)CCCCCNC(=O)OC(C)(C)C)sc3c2)cc1NC(=O)Cc1ccccc1` [Compound A101] was tested. Which “HT29 Inhibition (10 μM)” value did it give?
**A.** The value was 5%.

**Q.** Which “HT29 Inhibition (10 μM)” value does the source give for `CCOC(=O)Nc1cc(-c2ccc3nc(NC(C)=O)sc3c2)cnc1C` [Compound A52] here?
**A.** The value was 10%.

**Q.** How did the “HT29 Inhibition (10 μM)” value turn out when `CC(=O)Nc1nc2ccc(-c3cnc(C)c(NC(=O)CN4CCOCC4)c3)cc2s1` [Compound A38] was run?
**A.** The value was 33%.

**Q.** Which “HT29 Inhibition (10 μM)” value does the source give for `CC(=O)Nc1nc2ccc(-c3cnc(Cl)c(NC(=O)c4ccccn4)c3)cc2s1` [Compound A2] here?
**A.** The value was 8%.

**Q.** `CC(C)(C)OC(=O)NCCCNc1nc2ccc(-c3cnc(Cl)c(NC(=O)c4cccc(F)c4)c3)cc2s1` [Compound A6] was tested. Which “HT29 Inhibition (10 μM)” value did it give?
**A.** The value was 5%.

**Q.** With `Cc1ncc(-c2ccc3[nH]c(=O)ccc3c2)cc1NC(=O)OC1CCCCC1` [Compound A97] as the compound, how does the “HT29 Inhibition (10 μM)” value read?
**A.** Its value is 7%.

**Q.** For `CC(=O)Nc1nc2ccc(-c3cnc(C)c(NC(=O)Oc4ccccc4)c3)cc2s1` [Compound A82], which “HT29 Inhibition (10 μM)” value is on record?
**A.** Its value is 7%.

**Q.** Which “HT29 Inhibition (10 μM)” value does the source give for `Cc1ncc(-c2ccc3nc(NCC#N)sc3c2)cc1NC(=O)OC1CCCCC1` [Compound A91] here?
**A.** The value was 40%.

**Q.** For `CC(=O)Nc1ncc2cc(-c3cnc(C)c(NC(=O)OC4CCCCC4)c3)ccc2n1` [Compound A96], which “HT29 Inhibition (10 μM)” value is on record?
**A.** Its value is 8%.

**Q.** How did the “HT29 Inhibition (10 μM)” value turn out when `O=C(Cc1ccccc1)Nc1cc(-c2ccc3ncsc3c2)cnc1Cl` [Compound A100] was run?
**A.** The value was 9%.

**Q.** `CC(=O)Nc1nc2ccc(-c3cnc(CCCNC(=O)CCCCCNC(=O)CCCC[C@H]4SC[C@H]5NC(=O)N[C@H]54)c(NC(=O)c4cccc(F)c4)c3)cc2s1` [Compound A8] was tested. Which “HT29 Inhibition (10 μM)” value did it give?
**A.** The value was 10%.

**Q.** For `NCCCNc1nc2ccc(-c3cnc(Cl)c(NC(=O)c4cccc(F)c4)c3)cc2s1` [Compound A7], which “HT29 Inhibition (10 μM)” value is on record?
**A.** Its value is 8%.

**Q.** `CC(=O)Nc1nc2ccc(-c3cnc(C)c(NC(=O)O[C@H]4CC[C@H](O)CC4)c3)cc2s1` [Compound A79] was tested. Which “HT29 Inhibition (10 μM)” value did it give?
**A.** The value was 35%.

**Q.** With `CC(=O)Nc1nc2ccc(-c3cnc(C)c(NC(=O)CN4CCCC4)c3)cc2s1` [Compound A41] as the compound, how does the “HT29 Inhibition (10 μM)” value read?
**A.** Its value is 14%.

**Q.** Which “HT29 Inhibition (10 μM)” value does the source give for `CC(=O)Nc1ncc2ccc(-c3cnc(C)c(NC(=O)OC4CCCCC4)c3)cc2n1` [Compound A98] here?
**A.** Its value is 50%.

**Q.** `CC(=O)Nc1nc2ccc(-c3cncc(NC(=O)Cc4ccccc4Cl)n3)cc2s1` [Compound A34] was tested. Which “HT29 Inhibition (10 μM)” value did it give?
**A.** Its value is 1%.

**Q.** How did the “HT29 Inhibition (10 μM)” value turn out when `CC(=O)Nc1nc2ccc(-c3ccnc(NC(=O)OC4CCCCC4)c3)cc2s1` [Compound A75] was run?
**A.** Its value is 6%.

**Q.** With `Cc1ncc(-c2ccc3nc(N(C)C(=O)CCCCCNC(=O)CCCCCNC(=O)CCCC[C@@H]4SC[C@@H]5NC(=O)N[C@@H]54)sc3c2)cc1NC(=O)Cc1ccccc1` [Compound A102] as the compound, how does the “HT29 Inhibition (10 μM)” value read?
**A.** Its value is 5%.

**Q.** `CC(=O)Nc1nc2ccc(-c3cncc(NC(=O)Cc4ccccc4)n3)cc2s1` [Compound A33] was tested. Which “HT29 Inhibition (10 μM)” value did it give?
**A.** The value was 1%.

**Q.** `Cc1ncc(-c2ccc3nc(NS(C)(=O)=O)sc3c2)cc1NC(=O)OC1CCCCC1` [Compound A85] was tested. Which “HT29 Inhibition (10 μM)” value did it give?
**A.** Its value is 7%.

**Q.** For `O=C(CCCC[C@@H]1SC[C@@H]2NC(=O)N[C@@H]21)NCCCCCC(=O)NCCCNc1nc2ccc(-c3cnc(Cl)c(NC(=O)c4cccc(F)c4)c3)cc2s1` [Compound A9], which “HT29 Inhibition (10 μM)” value is on record?
**A.** Its value is 8%.

**Q.** For `CC(=O)Nc1nc2ncc(-c3cnc(C)c(NC(=O)OC4CCCCC4)c3)cc2s1` [Compound A63], which “HT29 Inhibition (10 μM)” value is on record?
**A.** The value was 9%.

**Q.** With `CC(=O)Nc1nc2ccc(-c3cnc(C)c(NC(=O)CC4CC4)c3)cc2s1` [Compound A42, N-(5-(2-acetamidobenzo[d]thiazol-6-yl)-2-methylpyridin-3-yl)-2-cyclopropylacetamide] as the compound, how does the “HT29 Inhibition (10 μM)” value read?
**A.** The value was 22%.

**Q.** How did the “HT29 Inhibition (10 μM)” value turn out when `CC(=O)Nc1nc2ccc(-c3cnc(C)c(NC(=O)OCc4ccccc4)c3)cc2s1` [Compound A74] was run?
**A.** The value was 8%.

**Q.** Which “HT29 Inhibition (10 μM)” value does the source give for `O=C(Nc1cc(-c2ccc3nncn3c2)cnc1Cl)c1cccc(F)c1` [Compound A10] here?
**A.** The value was 1%.

System: HT29 cells
Assay: as above
Format: cell-based, human
Conditions: HT29 cells, TNF-α/Smacmimetic/z-VAD induced necrosis; values in nM

**Q.** With `CC(=O)Nc1nc2ccc(-c3cnc(F)c(NC(=O)OC4CCCCC4)c3)cc2s1` [Compound A90] as the compound, how does the IC50 read?
**A.** Its IC50 is 300 nM.

Same assay, conditions: Homo sapiens, HT-29, HT29 cells, TNF-α/Smacmimetic/z-VAD induced necrosis; values given in μM

**Q.** With `CC(=O)Nc1nc2ccc(-c3cnc(C)c(NC(=O)OC4CCCCC4)c3)cn2n1` [Compound A53] as the compound, how does the IC50 read?
**A.** Its IC50 is 2190 nM.

Same assay, conditions: Homo sapiens, HT-29, HT29 cells, TNF-α/Smacmimetic/z-VAD induced necrosis; values in nM

**Q.** For `CC(=O)Nc1nc2ccc(-c3cnc(C)c(NC(=O)OC4CCOCC4)c3)cc2s1` [Compound A55], which IC50 is on record?
**A.** Its IC50 is 253 nM.

**Q.** For `CC(=O)Nc1cn2nc(-c3cnc(C)c(NC(=O)OC4CCCCC4)c3)ccc2n1` [Compound A65], which IC50 is on record?
**A.** The IC50 was 167 nM.

**Q.** How did the IC50 turn out when `CCC(C)OC(=O)Nc1cc(-c2ccc3nc(NC(C)=O)sc3c2)cnc1C` (centres unmarked) [Compound A86] was run?
**A.** Its IC50 is 87 nM.

**Q.** Which IC50 does the source give for `Cc1ncc(-c2ccc3nc(NC(=O)C4CC4)cn3c2)cc1NC(=O)OC1CCCCC1` [Compound A81, Cyclohexyl (5-(2-(cyclopropanecarboxamido)imidazo[1,2-a]pyridin-6-yl)-2-methylpyridin-3-yl)carbamate] here?
**A.** The IC50 was 9 nM.

**Q.** With `CCOC(=O)Nc1nc2ccc(-c3cnc(C)c(NC(=O)OC4CCCCC4)c3)cc2s1` [Compound A62] as the compound, how does the IC50 read?
**A.** The IC50 was 63 nM.

**Q.** `CC(=O)Nc1nc2ccc(-c3cnc(C)c(NC(=O)OC4CCC5(CC4)CC5)c3)cc2s1` [Compound A95] was tested. Which IC50 did it give?
**A.** Its IC50 is 53 nM.

**Q.** `CC(=O)Nc1nc2ccc(-c3cnc(C#N)c(NC(=O)OC4CCCCC4)c3)cc2s1` [Compound A72] was tested. Which IC50 did it give?
**A.** Its IC50 is 534 nM.

**Q.** For `Cc1ncc(-c2ccc3nc(N)sc3c2)cc1NC(=O)OC1CCCCC1` [Compound A70, Cyclohexyl (5-(2-aminobenzo[d]thiazol-6-yl)-2-methylpyridin-3-yl)carbamate], which IC50 is on record?
**A.** Its IC50 is 93 nM.

**Q.** Which IC50 does the source give for `COc1ncc(-c2ccc3nc(NC(C)=O)sc3c2)cc1NC(=O)OC1CCCCC1` [Compound A69] here?
**A.** Its IC50 is 107 nM.

**Q.** For `Cc1ncc(-c2ccc3nc(NC(=O)C4CC4)sc3c2)cc1NC(=O)OC1CCCOC1` (centres unmarked) [Compound A68], which IC50 is on record?
**A.** The IC50 was 31 nM.

**Q.** With `CC(=O)Nc1nc2ccc(-c3cnc(C)c(NC(=O)OC4CCC(F)(F)CC4)c3)cc2s1` [Compound A59] as the compound, how does the IC50 read?
**A.** Its IC50 is 689 nM.

**Q.** `CCC(=O)Nc1nc2ccc(-c3cnc(C)c(NC(=O)OC4CCCCC4)c3)cc2s1` [Compound A60] was tested. Which IC50 did it give?
**A.** Its IC50 is 53 nM.

**Q.** `CC(=O)Nc1nc2ccc(-c3cc(NC(=O)OC4CCCCC4)c(C)nn3)cc2s1` [Compound A66, Cyclohexyl 6-(2-acetamidobenzo[d]thiazol-6-yl)-3-methylpyridazin-4-ylcarbamate] was tested. Which IC50 did it give?
**A.** Its IC50 is 247 nM.

**Q.** For `CC(=O)Nc1nc2ccc(-c3cnc(C)c(NC(=O)OC(C)C)c3)cc2s1` [Compound A73], which IC50 is on record?
**A.** Its IC50 is 287 nM.
